Experimental data taken from patent US20110293745A1, “AURORA KINASE INHIBITORS” (SUNESIS PHARMACEUTICALS, INC., priority 2008, published 2011).
Read-outs that look alike come from different tables or passages of the source.

Tests used:
[1] = test system: HCT 116 colon cancer xenograft; assay: In vivo efficacy, mouse xenograft
Description: HCT 116 colon cancer cells [200 μL of a 2.5×10^7 cells/mL suspension (1:1 DPBS with cells:Matrigel)] were subcutaneously implanted in the right hind flank of female nu/nu athymic mice. After 7 days, when tumors reached an average volume of approximately 200 mm^3, animals were weighed, randomized by tumor volume (l×w×h×0.52), and assigned to the various study groups before initial dosing.
[…]. The animals on the twice-weekly schedule received compound on Days 1, 4, 8, 11, 15 and 18. […].
(§1) Percent TGI is then calculated with the following equation: […]
where TVt is the average tumor volume on Day 10 and TV, is the initial average tumor volume. ANOVA was performed to calculate statistical significance, defined as p<0.05.
(§2) Time To Endpoint (TTE) was calculated for each individual animal to reach the predetermined study end point where the tumor volume becomes 1200 mm^3 or 10% of body weight or a greater than 20% body weight loss for two sequential measurements. The TTE is calculated and the median value is recorded for the group. Tumor Growth Delay (TGD) is then calculated with the following equation:
TGD=median TTEtreatment−median TTEcontrol

[2] = test system: pHH3 in Calu-6; assay: cells; settings: Homo sapiens, Calu-6, 1 h, read-out: pHH3 IC50
Description: (§3) For analysis of pHH3 on adherent cells (HCT116, A375, and H1299), tumor cells were grown in 96-well tissue culture plates overnight at 37° C. […] Cells were fixed, permeabilized and exposed to anti-pHH3 antibody and analyzed for pHH3 staining. Data were fit to an IC50 equation. For analysis of pHH3 on nonadherent cells or cells with irregular morphology (A2780, Calu-6, and HT-29), tumor cells were seeded in 6-well tissue culture plates overnight at 37° C. […] Cells were trypsinized, collected, lysed, and analyzed by immunoblotting.

[3] = test system: pHH3 in A375; assay: cells; settings: Homo sapiens, A-375, 1 h, read-out: pHH3 IC50
Description: as §3

[4] = test system: pHH3 in A2780; assay: cells; settings: Homo sapiens, A2780, 1 h, read-out: pHH3 IC50
Description: as §3

[5] = test system: pHH3 in H1299; assay: cells; settings: Homo sapiens, NCI-H1299, 1 h, read-out: pHH3 IC50
Description: as §3

[6] = target: T1, Axl (Homo sapiens, UniProt P30530); assay: Radiometric kinase assay (Upstate panel); type: biochemical
T1 construct: purchased Upstate Biotechnology, Dundee, UK
T1 sequence (P30530 26-894): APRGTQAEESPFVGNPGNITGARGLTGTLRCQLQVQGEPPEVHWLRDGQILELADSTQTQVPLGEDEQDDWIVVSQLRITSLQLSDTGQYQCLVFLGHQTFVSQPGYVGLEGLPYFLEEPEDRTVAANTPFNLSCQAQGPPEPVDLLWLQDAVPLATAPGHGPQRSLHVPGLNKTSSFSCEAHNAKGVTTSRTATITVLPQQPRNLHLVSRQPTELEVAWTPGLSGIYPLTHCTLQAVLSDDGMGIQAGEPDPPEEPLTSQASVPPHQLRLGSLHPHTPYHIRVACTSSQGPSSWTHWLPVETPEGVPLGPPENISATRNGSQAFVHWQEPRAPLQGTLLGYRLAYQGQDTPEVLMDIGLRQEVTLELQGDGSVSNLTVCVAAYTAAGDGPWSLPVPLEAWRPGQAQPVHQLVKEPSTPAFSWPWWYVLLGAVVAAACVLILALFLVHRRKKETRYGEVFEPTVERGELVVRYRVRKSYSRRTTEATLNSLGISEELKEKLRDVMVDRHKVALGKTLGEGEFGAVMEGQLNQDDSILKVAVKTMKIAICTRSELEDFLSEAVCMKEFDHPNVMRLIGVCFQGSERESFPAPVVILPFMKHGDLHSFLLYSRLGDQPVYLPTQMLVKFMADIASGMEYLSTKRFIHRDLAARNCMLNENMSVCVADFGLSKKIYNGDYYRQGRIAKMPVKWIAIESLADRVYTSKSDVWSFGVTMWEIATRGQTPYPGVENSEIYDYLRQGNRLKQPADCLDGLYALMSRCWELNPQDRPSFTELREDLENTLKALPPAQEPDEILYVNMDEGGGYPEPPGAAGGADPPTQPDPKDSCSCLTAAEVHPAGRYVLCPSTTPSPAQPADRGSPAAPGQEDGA

[7] = test system: pHH3 in HCT 116 tumor xenograft; assay: Phospho-histone H3 in vivo (Western blot of tumor); set-up: species or system mouse; settings: single 50 mg/kg and 100 mg/kg IP; 3 hr, 6 hr, 10 hr post administration
Excerpt: For each of the studies of compound distribution, pHH3 levels, and tumor section microscopy, after the tumors reached an average volume of 500 mm^3, the animals were weighed and sorted into randomized groups before initial dosing.

[8] = test system: MiaPaca2; assay: Cell Proliferation ELISA, BrdU; type: cell-based; settings: Homo sapiens, MIA PaCa-2; MiaPaca2 (Pancreatic), 96 hr
Description: Cellular proliferation was assessed using the Cell Proliferation ELISA, bromodeoxyuridine (BrdU) kit (Roche) including reagents, according to the kit protocol.

[9] = test system: MDA-MB-231 breast cancer xenograft; assay: In vivo efficacy, mouse xenograft
Description: as §1
as §2, with “equation: […]” for “equation:”
MDA-MB-231 breast cancer cells [200 μL of a 2.5×10^7 cells/mL suspension (1:1 DPBS with cells:Matrigel)] were implanted subcutaneously in the right hind flank of mice. After 13 days, when tumors reached n average volume of approximately 95 mm^3, animals were weighed, randomized by tumor volume (l×w×h×0.52), and assigned to the various study groups before initial dosing.

[10] = test system: phospho-histone H3 in HCT 116 cells; assay: Phospho-histone H3 staining (High Content Screening); type: cell-based; settings: Homo sapiens
Description: Analysis of phospho-histone H3 (pHH3) levels was performed on adherent cells using high-content screening methodology. […]. This series was diluted 1000× in RPMI-1640 containing 10% FBS (1× treatment concentration: 10 μM-0.0002 μM). […].
Then, medium was aspirated and cells were incubated in 100 μL/well 4% formaldehyde for 15 min at room temperature.
[…]. […] Data were fit to an IC50 equation. […]. Cells were trypsinized, collected, lysed, and analyzed by immunoblotting.

[11] = Pharmacokinetics, single bolus intravenous injection; type: in vivo, Sprague-Dawley rats; settings: Sprague-Dawley, rat, plasma, 5 mg/kg
Excerpt: (§4) Pharmacokinetic parameters were estimated using noncompartmental analysis within WinNonlin v. 4.1. Quantification of Compound 2 was done by HPLC-MS/MS after extraction from plasma with acetonitrile. […] For rising dose experiments measuring exposure for each species, sets containing several animals were singly dosed at a given dose. Results from single-dose experiments are shown in FIG. 10A, Table 43, and in FIG. 10B and Table 44, respectively. […] C0 is initial concentration extrapolated to time zero. AUCINF is area under the plasma-concentration time curve from time zero extrapolated to the infinite time. CL is clearance; Vss is steady state volume of distribution. T1/2 is half-life.

[12] = as above; type: in vivo, beagle dogs; settings: beagle, dog, plasma, 5 mg/kg
Excerpt: as §4

[13] = Mass balance, elimination, autoradiography and metabolites with 14C-label; type: in vivo; settings: IV bolus 50 mg/kg, male rats, whole-body autoradiography
[14] = HCT 116 (Colon), 75 mg/kg biw × 3
[15] = HCT 116 (Colon), 100 mg/kg biw × 3
[16] = HCT 116 (Colon), 150 mg/kg biw × 3

Compound: CS(=O)(=O)O.O=C(Nc1cccc(Cl)c1)Nc1ncc(CCNc2ncnc3ccsc23)s1 [Compound 1, 1-(3-chlorophenyl)-3-{5-[2-(thieno[3,2-d]pyrimidin-4-ylamino)ethyl]thiazo}-urea]
- TGD ([1]; 100 mg/kg, qd × 5, 9 d off × 2): 45 days
- TGD ([1]; 125 mg/kg, Qw × 3): 22.5 days
- TGD ([1]; 150 mg/kg, biw × 3): 32.5 days
- % TGI [1, 14]: 67.5%
- TGD [1, 14]: 22 days
- % TGI [1, 15]: 79.4%
- TGD [1, 15]: 25.1 days
- % TGI [1, 16]: 95.6%
- TGD [1, 16]: 32.5 days
- IC50 [2]: 60 nM
- IC50 [3]: 15 nM
- IC50 [4]: 150 nM
- IC50 [5]: 58 nM
- IC50 [6]: 0.084 µM
- level of pHH3 in tumor versus vehicle-treated mice [7]: decreased
- IC50 [8]: 9.1 nM
- % TGI ([9]; 42.5 mg/kg biw × 3): 20.6%
- TGD ([9]; 42.5 mg/kg biw × 3): 3.5 days
- % TGI ([9]; 85 mg/kg biw × 3): 19.2%
- TGD ([9]; 85 mg/kg biw × 3): 4.0 days
- % TGI ([9]; 170 mg/kg biw × 3): 73.8%
- TGD ([9]; 170 mg/kg biw × 3): 14.1 days
- EC50 ([10]; HCT 116, 1 hour treatment, read-out: EC50 of the reduction of pHH3): ~9 nM
- IC50 ([10]; HCT 116, 1 hour, pHH3 staining): 9 nM

Compound: O=C(Nc1cccc(Cl)c1)Nc1ncc(CCNc2ncnc3ccsc23)s1 [Compound 2, 1-(3-chlorophenyl)-3-{5-[2-(thieno[3,2-d]pyrimidin-4-ylamino)ethyl]thiazol-2-yl}-urea]
- AUC(0-inf) [11]: 2100 ng·h/mL
- C0 [11]: 3600 ng/mL
- clearance [11]: 41.2 mL/min/kg
- half-life [11]: 48 min
- Vd ([11]; read-out: Vss): 1.8 L/kg
- AUC(0-inf) [12]: 12300 ng·h/mL
- C0 [12]: 2800 ng/mL
- clearance [12]: 6.8 mL/min/kg
- half-life [12]: 66 min
- Vd ([12]; read-out: Vss): 1 L/kg
- time of maximum tissue concentrations of radioactivity [13]: 1 h
